Reference: patent US8088752B2, “Methods for metabolic modulation” (VDF FutureCeuticals, Inc., priority 2003, dated 2012)
Entries after “also recorded” stand apart in the source; their conditions may differ. Each block holds one molecule with its values, some of them ahead of it.

Tests used:
activated Akt = assay: Level of activated Akt in muscle cells, Western immunoblotting; type: cell-based, mouse; settings: for FOLD AKT ACTIVATION (OVER CONTROL): 30 minutes; for Akt activity (in words): summary of Table 2
Description: (§1) In Vitro Effect of Selected Compounds on Glut-4, activated AMPK, and activated Akt The levels of Glut-4, activated AMPK and activated Akt were measured in mouse muscle cells C2C12 (from ATTC) and in primary culture of human skeletal muscle cells (Clonetics, Inc.) using Western immunoblotting. C2C12 cells were plated at […] cells per mL/well (12-well plate) in standard cell culture medium (DMEM supplemented with 10% fetal bovine serum (FBS), 25 mM glucose, 20 mM Hepes, 4 mM glutamine and 2 mM sodium pyruvate. 48 hrs after the plating, medium was changed to differentiation medium (DMEM supplemented with 5 mM of glucose and 0.5% of FBS) for next 3-4 days to stimulate the formation of myotubes. Three hrs before the treatment with selected agents, cells were washed with PBS and transferred to PBS supplemented with 5 mM of glucose.
(§2) Human skeletal muscle cells (HSKM) were cultured in SKBM-2 mediums provided by Clonetics. 48 hrs after cell plating, medium was changed to SKBM medium to stimulate differentiation of the cells to myotubes. When differentiated, the myotubes were transferred to PBS supplemented with 5 mM glucose for three hrs before the treatment.
(§3) Analysis of C2C12 cells for the level of activated AMPK, Akt and the level of GLUT-4 was performed in the same experimental system. The cells were treated for 30 minutes at 37° C. […] Subsequently, 20 μg per sample of sample protein was used for Western analysis using NuPage 10% Bis/Tris gels (Invitrogen). After exposure of membranes to primary and secondary antibodies AMPK, AKT or Glut-4 was detected using ECL-Plus (Amersham) following producer's instruction. Chemilumiscent signals were detected by using ChemiDoc system from Biorad. Intensity of detected signals were analyzed and measured using Quantity One software (Biorad). Alternatively, the level of phosphorylated AMPK was detected using ECL kit from Amersham and short exposure to Kodak films.
(§4) Experimental setup: Cell Culture was followed by treatment with selected contemplated compounds, which was followed by cell lysis and western blot analysis for AMPK, Akt, GLUT4, total AMPK, and total Akt. Signals were acquired accordingly.

activated AMPK = assay: Level of activated AMPK in muscle cells, Western immunoblotting; type: cell-based, mouse; settings: for AMPK activity (in words): summary of Table 1
Description: as §1, §2, §3, §4

muscle cells = assay: In vitro myocyte total glucose uptake, fluorescent glucose analog; type: cell-based; settings: summary of Table 4
Description: Total glucose uptake was measured using fluorescent glucose analog from Molecular Probes. Briefly, muscle cells were treated with kinetin, N^2-Acetyl-Guanosine and N^2-Acetyl-Guanine for 30 minutes at 37 C first and subsequently, these cells were exposed to 500 μM of fluorescent glucose analog for 5 minutes at room temperature. Next, cells were washed twice with cold Krebs-Hepes buffered solution and fixed in 70% ethanol in water. Fluorescence of fluorescent glucose in the cells was measured using fluorescent plate reader at 480/530 nm (excitation/emission). […] Table 4 refers to multiple independent experiments where multiple identical concentrations for the same reagents are indicated.

GLUT-4 = GLUT-4 protein level in C2C12 cells, Western immunoblotting; type: cell-based, mouse; settings: summary of Table 3
Description: as §1
Analysis of C2C12 cells for the level of activated AMPK, Akt and the level of GLUT-4 was performed in the same experimental system. The cells were treated for 30 minutes at 37° C. […] After exposure of membranes to primary and secondary antibodies AMPK, AKT or Glut-4 was detected using ECL-Plus (Amersham) following producer's instruction. Chemilumiscent signals were detected by using ChemiDoc system from Biorad. Intensity of detected signals were analyzed and measured using Quantity One software (Biorad). Alternatively, the level of phosphorylated AMPK was detected using ECL kit from Amersham and short exposure to Kodak films. […]

[1] = Serum level of DHZ in mice after oral or i.p. administration (ELISA); type: in vivo, mouse; settings: C57/B1 mice, 100 microgram/dose
Description: C57/B1 mice were treated with 100 microgram/dose of dihydrozeatin (DHZ) for 0, 15, 30, 60 and 120 minutes following oral or i.p. administration. Serum level of DHZ in pg/ml was measured using DHZ Elisa following procedures as enclosed in a commercially available test kit (e.g., dihydrozeatin competitive ELISA test system for plant growth hormone detection, Agdia, Elkhard, Ind.). Three animals were used per experimental point.

Molecule: C/C(=C\CNc1ncnc2[nH]cnc12)CO [Zeatin]
- FOLD AKT ACTIVATION (OVER CONTROL) (activated Akt; 1.0 microM): 0.95 fold
- Akt activity (in words) (activated Akt): not Akt
- AMPK activity (in words) (activated AMPK): more potent compounds; also recorded: potent stimulator of AMPK

Molecule: Nc1nc2c(ncn2[C@@H]2O[C@H](CO)[C@@H](O)[C@H]2O)c(=O)[nH]1 [Guanosine]
- Akt activity (in words) (activated Akt): potent activators of AMPK as well as Akt
- AMPK activity (in words) (activated AMPK): potent activators of AMPK as well as Akt

Molecule: CN(C)C(=N)N=C(N)N [Metformin, reference compound]
- FOLD AKT ACTIVATION (OVER CONTROL) (activated Akt; 20.0 milliM): 2.32 fold

Molecule: CC(=O)Nc1nc2c(ncn2[C@@H]2O[C@H](CO)[C@@H](O)[C@H]2O)c(=O)[nH]1 [N^2-Acetyl-Guanosine]
- glucose uptake in muscle cells in vitro (in words) (muscle cells): potently enhance glucose uptake
- Akt activity (in words) (activated Akt): potent activators of AMPK as well as Akt
- AMPK activity (in words) (activated AMPK): potent activators of AMPK as well as Akt
- GLUT-4 protein level (in words) (GLUT-4): potently increase GLUT-4 protein level

- time over which significant serum concentrations can be maintained [1]: at least 120 minutes
- oral bioavailability (in words) ([1]; oral): readily bioavailable from the oral route
Molecule: CC(CO)CCNc1ncnc2nc[nH]c12 (stereo not drawn) [Dihydro-Zeatin, dihydrozeatin]

Molecule: c1coc(CNc2ncnc3[nH]cnc23)c1 [Kinetin, kinetin]
- glucose uptake in muscle cells in vitro (in words) (muscle cells): potently enhance glucose uptake
- AMPK activity (in words) (activated AMPK): more potent compounds
- GLUT-4 protein level (in words) (GLUT-4): potently increase GLUT-4 protein level

Molecule: NC(=O)c1ncn([C@@H]2O[C@H](CO)[C@@H](O)[C@H]2O)c1N [AICAR, 4-Amino-5-imidazolecarboxamide riboside, reference compound]
- FOLD AKT ACTIVATION (OVER CONTROL) (activated Akt; 50.0 microM): 2.20 fold

Molecule: C/C(=C\CNc1ncnc2nc[nH]c12)CO [Trans-Zeatin]
- FOLD AKT ACTIVATION (OVER CONTROL) (activated Akt; 1.0 microM): 0.90 fold
- FOLD AKT ACTIVATION (OVER CONTROL) (activated Akt; 10.0 microM): 0.86 fold

Molecule: CC(=O)Nc1nc2nc[nH]c2c(=O)[nH]1 [N^2-Acetyl-Guanine, N2-acetylguanine]
- glucose uptake in muscle cells in vitro (in words) (muscle cells): potently enhance glucose uptake
- Akt activity (in words) (activated Akt): potent activators of AMPK as well as Akt
- AMPK activity (in words) (activated AMPK): potent activators of AMPK as well as Akt
- GLUT-4 protein level (in words) (GLUT-4): potently increase GLUT-4 protein level

Molecule: c1ccc(CNc2ncnc3nc[nH]c23)cc1 [Benzyl-Adenine]
- FOLD AMPK ACTIVATION (OVER CONTROL) (activated AMPK; 5.0 microM, 30 minutes): 2.70 fold

Molecule: Insulin: Insulin, comparator in the Akt activation test
- FOLD AKT ACTIVATION (OVER CONTROL) (activated Akt; 0.10 nanoM): 1.75 fold
- FOLD AKT ACTIVATION (OVER CONTROL) (activated Akt; 25.0 nanoM): 3.40 fold
- FOLD AKT ACTIVATION (OVER CONTROL) (activated Akt; 50.0 nanoM): 3.28 fold

Molecule: CC(C)=CCNc1ncnc2nc[nH]c12 [Gamma, Gamma-Dimethylally-6-Aminopurine]
- FOLD AKT ACTIVATION (OVER CONTROL) (activated Akt; 0.8 microM): 1.90 fold
